Peptide text beside a SMILES is read from it.
What was measured:
[1] = system: CD4 T cells co-cultured with autologous DCs from PBMCs; format: cell-based, human; settings: positive = Stimulation Index ≥1.5-fold above baseline, 5 µg/mL peptide
HLA-DRB1*1101 = target: T1, HLA-DRB1*1101 (Homo sapiens, UniProt P01903+P01911, A100R/A169T/A87E/I96F/K41T/L162R/M171V/P40S/Q125H/Q178H/Q39Y/Q99D/R42S/S66Y/T262R/V115G/W38E); assay: In vitro class II HLA binding competition assay; settings: competition with fluorescent-labeled reference peptide, class II HLA monomers, 24-hours, test peptide 100,000 nM to 100 nM, time-resolved fluorescence
T1 construct: purchased
Protocol: (§1) EpiVax conducted in vitro quantification of peptide-HLA binding affinity utilizing a competition assay format per the methodology described in ([35]). Briefly, a fluorescent-labeled, high-binding reference peptide and titrating concentrations of test peptide were incubated in a 96-well plate format with limiting concentrations of class II HLA monomers in aqueous buffer for 24-hours. Post incubation, the mixtures were moved to a 96-well plate coated with anti-HLA-DR antibody to capture HLA-peptide complexes. Time-resolved fluorescence measurement of the bound labeled reference peptide complex present in each mixture were detected with a europium-linked probe via fluorescent spectrophotometry using a SpectraMax M5 system. HLA binding affinity of each test peptide was expressed as the percent inhibition of reference peptide binding. Percent inhibition values (across the test peptide titration range) were used to calculate the half maximal inhibitory concentration (IC50) of each test peptide. For these studies, test peptides were assessed using a range of final concentrations from 100,000 nM to 100 nM and all peptides were reconstituted in dimethyl sulfoxide (DMSO).

HLA-DRB1*1301 = HLA-DRB1*1301 (Homo sapiens, UniProt P01903+P01911, A100E/A169T/K41T/L162R/M171V/P40S/Q125H/Q178H/Q39Y/Q99D/R42S/S66N/T262R/W38E/Y61H); assay: In vitro class II HLA binding competition assay; settings: competition with fluorescent-labeled reference peptide, class II HLA monomers, 24-hours, test peptide 100,000 nM to 100 nM, time-resolved fluorescence
Protocol: as §1

HLA-DRB1*0401 = target: T2, HLA-DRB1*0401 (Homo sapiens, UniProt P01903+P01911, A100K/A169T/F76Y/I96L/K127E/L162R/M171V/N62H/P40V/Q125Y/R42H/S133A/S149N/S66Y/V115G/V209L/W38E); assay: In vitro class II HLA binding competition assay; settings: competition with fluorescent-labeled reference peptide, class II HLA monomers, 24-hours, test peptide 100,000 nM to 100 nM, time-resolved fluorescence; read-out: IC50, DRB1*0401
T2 construct: purchased
Protocol: as §1

HLA-DRB1*0801 = HLA-DRB1*0801 (Homo sapiens, UniProt P01903+P01911, A100R/A103L/A169T/D86S/F76Y/H45Y/I96F/K41T/L162R/M171V/P40S/Q125H/Q178H/Q39Y/Q99D/R218S/R42G/S66Y/V115G/W38E); assay: In vitro class II HLA binding competition assay; settings: competition with fluorescent-labeled reference peptide, class II HLA monomers, 24-hours, test peptide 100,000 nM to 100 nM, time-resolved fluorescence
Protocol: as §1

CC(=O)N[C@@H](CCCCN)C(=O)N[C@@H](CCC(N)=O)C(=O)N[C@@H](CCC(=O)O)C(=O)N[C@@H](CC(N)=O)C(=O)N[C@@H](Cc1c[nH]c2ccccc12)C(=O)N[C@@H](Cc1ccc(O)cc1)C(=O)N[C@@H](CO)C(=O)N[C@@H](CC(C)C)C(=O)N[C@@H](CCCCN)C(=O)N[C@@H](CCCCN)C(=O)N[C@@H](CC(N)=O)C(=O)N[C@@H](CO)C(=O)N[C@@H](CCCNC(=N)N)C(=O)N[C@@H](CO)C(=O)N[C@@H](CC(C)C)C(=O)NCC(=O)N[C@@H](CCC(=O)O)C(=O)N[C@@H](CC(N)=O)C(=O)N[C@@H](CC(=O)O)C(N)=O [Cluster C2] (Ac-KQENWYSLKKNSRSLGEND-NH2)
10%: Percentage of donors demonstrating IL-4 responses, DR4 ([1]; DR4 donors N=10, ICCS) | Percentage of donors demonstrating IL-10 responses, DR4 ([1]; DR4 donors N=10, ICCS)
40%: Percentage of donors demonstrating IL-4 responses, DR1 ([1]; DR1 donors N=5, ICCS)
33%: Percentage of donors demonstrating IFN-γ responses, DR3 ([1]; DR3 donors N=6, ICCS after 14-day co-culture)
20%: Percentage of donors demonstrating IFN-γ responses, DR1 ([1]; DR1 donors N=5, ICCS after 14-day co-culture) | Percentage of donors demonstrating IL-10 responses, DR1 ([1]; DR1 donors N=5, ICCS)
29%: Percentage of donors demonstrating IL-10 responses, DR13 ([1]; DR13 donors N=7, ICCS) | Percentage of donors demonstrating IFN-γ responses, DR15 ([1]; DR15 donors N=7, ICCS after 14-day co-culture)
25%: Percentage of donors demonstrating IL-4 responses, DR7 ([1]; DR7 donors N=4, ICCS) | Percentage of donors demonstrating IL-10 responses, DR8 ([1]; DR8 donors N=4, ICCS) | Percentage of donors demonstrating IFN-γ responses, DR9 ([1]; DR9 donors N=4, ICCS after 14-day co-culture) | Percentage of donors demonstrating IL-4 responses, DR9 ([1]; DR9 donors N=4, ICCS) | Percentage of donors demonstrating IL-10 responses, DR9 ([1]; DR9 donors N=4, ICCS)
0%: Percentage of donors demonstrating IL-2 responses, DR1 ([1]; DR1 donors N=5, ICCS) | Percentage of donors demonstrating TNF-α responses, DR1 ([1]; DR1 donors N=5, ICCS) | Percentage of donors demonstrating IL-2 responses, DR3 ([1]; DR3 donors N=6, ICCS) | Percentage of donors demonstrating IL-4 responses, DR3 ([1]; DR3 donors N=6, ICCS) | Percentage of donors demonstrating TNF-α responses, DR3 ([1]; DR3 donors N=6, ICCS) | Percentage of donors demonstrating IFN-γ responses, DR4 ([1]; DR4 donors N=10, ICCS after 14-day co-culture) | Percentage of donors demonstrating IL-2 responses, DR4 ([1]; DR4 donors N=10, ICCS) | Percentage of donors demonstrating TNF-α responses, DR4 ([1]; DR4 donors N=10, ICCS) | Percentage of donors demonstrating IFN-γ responses, DR7 ([1]; DR7 donors N=4, ICCS after 14-day co-culture) | Percentage of donors demonstrating IL-2 responses, DR7 ([1]; DR7 donors N=4, ICCS) | Percentage of donors demonstrating TNF-α responses, DR7 ([1]; DR7 donors N=4, ICCS) | Percentage of donors demonstrating IFN-γ responses, DR8 ([1]; DR8 donors N=4, ICCS after 14-day co-culture) | Percentage of donors demonstrating IL-2 responses, DR8 ([1]; DR8 donors N=4, ICCS) | Percentage of donors demonstrating IL-4 responses, DR8 ([1]; DR8 donors N=4, ICCS) | Percentage of donors demonstrating TNF-α responses, DR8 ([1]; DR8 donors N=4, ICCS) | Percentage of donors demonstrating IL-2 responses, DR9 ([1]; DR9 donors N=4, ICCS) | Percentage of donors demonstrating TNF-α responses, DR9 ([1]; DR9 donors N=4, ICCS) | Percentage of donors demonstrating IFN-γ responses, DR11 ([1]; DR11 donors N=4, ICCS after 14-day co-culture) | Percentage of donors demonstrating IL-2 responses, DR11 ([1]; DR11 donors N=4, ICCS) | Percentage of donors demonstrating IL-4 responses, DR11 ([1]; DR11 donors N=4, ICCS) | Percentage of donors demonstrating IL-10 responses, DR11 ([1]; DR11 donors N=4, ICCS) | Percentage of donors demonstrating TNF-α responses, DR11 ([1]; DR11 donors N=4, ICCS) | Percentage of donors demonstrating IFN-γ responses, DR13 ([1]; DR13 donors N=7, ICCS after 14-day co-culture) | Percentage of donors demonstrating IL-2 responses, DR13 ([1]; DR13 donors N=7, ICCS) | Percentage of donors demonstrating IL-4 responses, DR13 ([1]; DR13 donors N=7, ICCS) | Percentage of donors demonstrating TNF-α responses, DR13 ([1]; DR13 donors N=7, ICCS) | Percentage of donors demonstrating IL-2 responses, DR15 ([1]; DR15 donors N=7, ICCS) | Percentage of donors demonstrating IL-4 responses, DR15 ([1]; DR15 donors N=7, ICCS) | Percentage of donors demonstrating TNF-α responses, DR15 ([1]; DR15 donors N=7, ICCS)
10800 nM: IC50 (HLA-DRB1*0401)
395 nM: IC50 (HLA-DRB1*1101)
50%: Percentage of donors demonstrating IL-10 responses, DR3 ([1]; DR3 donors N=6, ICCS) | Percentage of donors demonstrating IL-10 responses, DR7 ([1]; DR7 donors N=4, ICCS)
37 nM: IC50 (HLA-DRB1*1301)
108 nM: IC50 (HLA-DRB1*0801)
14%: Percentage of donors demonstrating IL-10 responses, DR15 ([1]; DR15 donors N=7, ICCS)

Source: PMC8217813, “Bridging Computational Vaccinology and Vaccine Development Through Systematic Identification, Characterization, and Downselection of Conserved and Variable Circumsporozoite Protein CD4 T Cell Epitopes From Diverse Plasmodium falciparum Strains” (Frontiers in Immunology, 2021)
